Test results published in ChEMBL document CHEMBL6109063, “Discovery of dual PARP/NAMPT inhibitors for the treatment of BRCA wild-type triple-negative breast cancer” (Bioorg Med Chem Lett, 2025).
The source made the active and inactive calls. No cut-off for these calls is given here.

Assays:
[1] = target: Poly [ADP-ribose] polymerase 1 (Homo sapiens, UniProt P09874); assay: Inhibition of PARP1 (unknown origin)
[2] = target: Nicotinamide phosphoribosyltransferase (Homo sapiens, UniProt P43490); assay: Inhibition of NAMPT (unknown origin)
Nicotinamide phosphoribosyltransferase, sequence (P43490 whole entry): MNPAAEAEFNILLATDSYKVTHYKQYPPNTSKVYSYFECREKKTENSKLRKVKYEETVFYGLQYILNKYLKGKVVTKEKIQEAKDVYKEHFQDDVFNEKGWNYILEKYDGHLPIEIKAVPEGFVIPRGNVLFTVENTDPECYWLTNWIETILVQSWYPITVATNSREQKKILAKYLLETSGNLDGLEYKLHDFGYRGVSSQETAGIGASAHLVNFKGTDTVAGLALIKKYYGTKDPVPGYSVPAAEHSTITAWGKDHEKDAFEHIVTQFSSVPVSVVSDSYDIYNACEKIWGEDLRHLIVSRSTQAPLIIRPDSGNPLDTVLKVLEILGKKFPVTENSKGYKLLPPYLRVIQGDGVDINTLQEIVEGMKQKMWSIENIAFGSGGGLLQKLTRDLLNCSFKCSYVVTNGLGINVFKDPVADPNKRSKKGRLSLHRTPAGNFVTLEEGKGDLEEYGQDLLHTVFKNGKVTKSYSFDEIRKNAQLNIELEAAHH

MDA-MB-231 [3] = assay: Synergistic anti-proliferative activity against human MDA-MB-231 cells harboring wild-type BRCA assessed as combination index at 10 to 40 uM in presence of olaparib; assay type: functional; details: dose 10-40 µM
MDA-MB-231 [4] = assay: Induction of apoptosis in human MDA-MB-231 cells harboring wild-type BRCA assessed as viable cells at 15 uM incubated for 48 hrs by Annexin V-FITC/PI staining based flow cytometry analysis (reference value: 94.3%); assay type: functional; details: read-out: Activity
MDA-MB-231 [5] = assay: Induction of apoptosis in human MDA-MB-231 cells harboring wild-type BRCA assessed as early apoptotic cells at 15 uM incubated for 48 hrs by Annexin V-FITC/PI staining based flow cytometry analysis (reference value: 1.60%); assay type: functional
MDA-MB-231 [6] = assay: Induction of apoptosis in human MDA-MB-231 cells harboring wild-type BRCA assessed as late apoptotic cells at 15 uM incubated for 48 hrs by Annexin V-FITC/PI staining based flow cytometry analysis (reference value: 2.38%); assay type: functional
MDA-MB-231 [7] = assay: Induction of apoptosis in human MDA-MB-231 cells harboring wild-type BRCA assessed as necrotic cells at 15 uM incubated for 48 hrs by Annexin V-FITC/PI staining based flow cytometry analysis (reference value: 1.68%); assay type: functional
MDA-MB-231 [8] = assay: Induction of apoptosis in human MDA-MB-231 cells harboring wild-type BRCA assessed as viable cells at 15 uM incubated for 48 hrs in presence of Olaparib by Annexin V-FITC/PI staining based flow cytometry analysis (reference value: 94.3%); assay type: functional; details: read-out: Activity
MDA-MB-231 [9] = assay: Induction of apoptosis in human MDA-MB-231 cells harboring wild-type BRCA assessed as early apoptotic cells at 15 uM incubated for 48 hrs in presence of Olaparib by Annexin V-FITC/PI staining based flow cytometry analysis (reference value: 1.60%); assay type: functional
MDA-MB-231 [10] = assay: Induction of apoptosis in human MDA-MB-231 cells harboring wild-type BRCA assessed as late apoptotic cells at 15 uM incubated for 48 hrs in presence of Olaparib by Annexin V-FITC/PI staining based flow cytometry analysis (reference value: 2.38%); assay type: functional
MDA-MB-231 [11] = assay: Induction of apoptosis in human MDA-MB-231 cells harboring wild-type BRCA assessed as necrotic cells at 15 uM incubated for 48 hrs in presence of Olaparib by Annexin V-FITC/PI staining based flow cytometry analysis (reference value: 1.68%); assay type: functional
MDA-MB-436 = assay: cells; details: Homo sapiens
MDA-MB-231 [12] = assay: cells; details: Homo sapiens
MDA-MB-231 [13] = assay: Induction of DNA damage in human MDA-MB-231 cells assessed as increase in gammaH2AX levels at 5 to 10 uM incubated for 48 hrs by DAPI staining based Immunofluorescence analysis; assay type: functional, cell-based; details: dose 5-10 µM
MDA-MB-231 [14] = assay: Induction of apoptosis in human MDA-MB-231 cells harboring wild-type BRCA assessed as viable cells at 10 uM incubated for 48 hrs by Annexin V-FITC/PI staining based flow cytometry analysis (reference value: 94.3%); assay type: functional; details: read-out: Activity
MDA-MB-231 [15] = assay: Induction of apoptosis in human MDA-MB-231 cells harboring wild-type BRCA assessed as early apoptotic cells at 10 uM incubated for 48 hrs by Annexin V-FITC/PI staining based flow cytometry analysis (reference value: 1.60%); assay type: functional
MDA-MB-231 [16] = assay: Induction of apoptosis in human MDA-MB-231 cells harboring wild-type BRCA assessed as late apoptotic cells at 10 uM incubated for 48 hrs by Annexin V-FITC/PI staining based flow cytometry analysis (reference value: 2.38%); assay type: functional
MDA-MB-231 [17] = assay: Induction of apoptosis in human MDA-MB-231 cells harboring wild-type BRCA assessed as necrotic cells at 10 uM incubated for 48 hrs by Annexin V-FITC/PI staining based flow cytometry analysis (reference value: 1.68%); assay type: functional
MDA-MB-231 [18] = assay: Induction of apoptosis in human MDA-MB-231 cells harboring wild-type BRCA assessed as viable cells at 5 uM incubated for 48 hrs by Annexin V-FITC/PI staining based flow cytometry analysis (reference value: 94.3%); assay type: functional; details: read-out: Activity
MDA-MB-231 [19] = assay: Induction of apoptosis in human MDA-MB-231 cells harboring wild-type BRCA assessed as early apoptotic cells at 5 uM incubated for 48 hrs by Annexin V-FITC/PI staining based flow cytometry analysis (reference value: 1.60%); assay type: functional
MDA-MB-231 [20] = assay: Induction of apoptosis in human MDA-MB-231 cells harboring wild-type BRCA assessed as late apoptotic cells at 5 uM incubated for 48 hrs by Annexin V-FITC/PI staining based flow cytometry analysis (reference value: 2.38%); assay type: functional
MDA-MB-231 [21] = assay: Induction of apoptosis in human MDA-MB-231 cells harboring wild-type BRCA assessed as necrotic cells at 5 uM incubated for 48 hrs by Annexin V-FITC/PI staining based flow cytometry analysis (reference value: 1.68%); assay type: functional
MDA-MB-231 [22] = assay: Downregulation of BRCA1 level in human MDA-MB-231 cells at 5 to 10 uM by Western blot analysis; assay type: functional, cell-based; details: dose 5-10 µM
MDA-MB-231 [23] = assay: Downregulation of Rad51 level in human MDA-MB-231 cells at 5 to 10 uM by Western blot analysis; assay type: functional, cell-based; details: dose 5-10 µM
MDA-MB-231 [24] = assay: Induction of apoptosis in human MDA-MB-231 cells harboring wild-type BRCA incubated for 48 hrs by Annexin V-FITC/PI staining based flow cytometry analysis; assay type: functional, cell-based; details: dose 5-10 µM
MDA-MB-231 [25] = assay: Antimigratory activity against human MDA-MB-231 cells at 10 uM incubated for 48 hrs by wound healing assay; assay type: functional, cell-based
MDA-MB-231 [26] = assay: Antimigratory activity against human MDA-MB-231 cells at 10 uM incubated for 48 hrs by Transwell migration assay; assay type: functional, cell-based
MDA-MB-231 [27] = assay: Induction of apoptosis in human MDA-MB-231 cells harboring wild-type BRCA assessed as viable cells at 10 uM incubated for 48 hrs in presence of GNE-617 by Annexin V-FITC/PI staining based flow cytometry analysis (reference value: 94.3%); assay type: functional; details: read-out: Activity
MDA-MB-231 [28] = assay: Induction of apoptosis in human MDA-MB-231 cells harboring wild-type BRCA assessed as early apoptotic cells at 10 uM incubated for 48 hrs in presence of GNE-617 by Annexin V-FITC/PI staining based flow cytometry analysis (reference value: 1.60%); assay type: functional
MDA-MB-231 [29] = assay: Induction of apoptosis in human MDA-MB-231 cells harboring wild-type BRCA assessed as late apoptotic cells at 10 uM incubated for 48 hrs in presence of GNE-617 by Annexin V-FITC/PI staining based flow cytometry analysis (reference value: 2.38%); assay type: functional
MDA-MB-231 [30] = assay: Induction of apoptosis in human MDA-MB-231 cells harboring wild-type BRCA assessed as necrotic cells at 10 uM incubated for 48 hrs in presence of GNE-617 by Annexin V-FITC/PI staining based flow cytometry analysis (reference value: 1.68%); assay type: functional

Poly [ADP-ribose] polymerase 1, sequence (P09874 whole entry): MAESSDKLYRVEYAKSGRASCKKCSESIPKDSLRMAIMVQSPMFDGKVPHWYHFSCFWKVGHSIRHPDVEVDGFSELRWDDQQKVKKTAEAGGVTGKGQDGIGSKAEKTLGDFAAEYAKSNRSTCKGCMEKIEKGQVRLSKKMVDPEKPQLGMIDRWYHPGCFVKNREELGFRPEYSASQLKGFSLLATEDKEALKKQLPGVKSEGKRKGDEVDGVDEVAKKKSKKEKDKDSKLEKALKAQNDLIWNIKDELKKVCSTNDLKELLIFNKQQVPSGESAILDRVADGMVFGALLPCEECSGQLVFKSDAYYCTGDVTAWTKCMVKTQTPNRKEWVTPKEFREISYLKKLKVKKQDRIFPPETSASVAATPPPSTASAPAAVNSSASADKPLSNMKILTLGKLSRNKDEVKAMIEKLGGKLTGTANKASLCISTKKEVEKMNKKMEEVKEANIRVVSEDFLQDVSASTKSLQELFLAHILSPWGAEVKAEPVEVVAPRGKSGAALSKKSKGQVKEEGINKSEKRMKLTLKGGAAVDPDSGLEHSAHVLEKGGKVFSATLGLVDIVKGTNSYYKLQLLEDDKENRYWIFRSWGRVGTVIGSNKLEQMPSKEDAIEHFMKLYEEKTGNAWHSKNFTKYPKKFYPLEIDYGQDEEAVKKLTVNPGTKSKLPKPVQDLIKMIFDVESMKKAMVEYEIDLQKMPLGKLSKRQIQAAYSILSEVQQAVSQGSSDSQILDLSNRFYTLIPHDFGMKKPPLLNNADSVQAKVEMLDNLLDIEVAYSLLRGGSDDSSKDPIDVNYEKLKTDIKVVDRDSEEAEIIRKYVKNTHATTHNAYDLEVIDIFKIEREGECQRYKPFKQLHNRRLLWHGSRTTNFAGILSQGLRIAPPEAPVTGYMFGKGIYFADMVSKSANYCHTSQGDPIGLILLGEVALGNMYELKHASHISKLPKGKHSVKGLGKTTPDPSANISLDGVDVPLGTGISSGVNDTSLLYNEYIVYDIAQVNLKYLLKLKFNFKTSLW

O=C(NCCCCN1CCN(C(=O)c2cc(Cc3n[nH]c(=O)c4ccccc34)ccc2F)CC1)c1ccc2nccn2c1
IC50 [1]: 1 nM | IC50 [2]: 72 nM

O=C(/C=C/c1cccnc1)NCCN1CCN(C(=O)c2cc(Cc3n[nH]c(=O)c4ccccc34)ccc2F)CC1
IC50 [2]: 93 nM

O=C(NCc1ccc(S(=O)(=O)c2cc(F)cc(F)c2)cc1)c1ccc2nccn2c1
CI (MDA-MB-231 [3]): <1 | viability at 15 µM (MDA-MB-231 [4]): 82.7% | Activity (MDA-MB-231 [5]): 17% | Activity (MDA-MB-231 [6]): 0.19% | Activity (MDA-MB-231 [7]): 0.023% | viability at 15 µM (MDA-MB-231 [8]): 64% | Activity (MDA-MB-231 [9]): 34.6% | Activity (MDA-MB-231 [10]): 1.38% | Activity (MDA-MB-231 [11]): 0.023% | IC50 (MDA-MB-436): 34200 nM | IC50 (MDA-MB-231 [12]): 50900 nM

O=C(/C=C/c1cccnc1)NCCCCCCN1CCN(C(=O)c2cc(Cc3n[nH]c(=O)c4ccccc34)ccc2F)CC1
IC50 [1]: 1 nM | IC50 [2]: 349 nM

O=C(NCCCCCCN1CCN(C(=O)c2cc(Cc3n[nH]c(=O)c4ccccc34)ccc2F)CC1)c1ccc2nccn2c1
Activity (MDA-MB-231 [13]): Active | IC50 [1]: 0.8 nM | IC50 [2]: 18 nM | viability at 10 µM (MDA-MB-231 [14]): 49.3% | Activity (MDA-MB-231 [15]): 44.2% | Activity (MDA-MB-231 [16]): 6.09% | Activity (MDA-MB-231 [17]): 0.41% | viability at 5 µM (MDA-MB-231 [18]): 68.3% | Activity (MDA-MB-231 [19]): 29.8% | Activity (MDA-MB-231 [20]): 1.84% | Activity (MDA-MB-231 [21]): 0.031% | Activity (MDA-MB-231 [22]): Active | Activity (MDA-MB-231 [23]): Active | Activity (MDA-MB-231 [24]): Dose-dependent-effect | Activity (MDA-MB-231 [25]): Active | Activity (MDA-MB-231 [26]): Active | IC50 (MDA-MB-436): 960 nM | IC50 (MDA-MB-231 [12]): 700 nM

O=C(/C=C/c1cccnc1)NCCCCCN1CCN(C(=O)c2cc(Cc3n[nH]c(=O)c4ccccc34)ccc2F)CC1
IC50 [1]: 1.6 nM | IC50 [2]: 14 nM | IC50 (MDA-MB-436): 1120 nM | IC50 (MDA-MB-231 [12]): 2540 nM

O=C(NCCCCCN1CCN(C(=O)c2cc(Cc3n[nH]c(=O)c4ccccc34)ccc2F)CC1)c1ccc2nccn2c1
IC50 [1]: 1.8 nM

O=C(c1cc(Cc2n[nH]c(=O)c3ccccc23)ccc1F)N1CCN(C(=O)C2CC2)CC1 [OLAPARIB]
viability at 10 µM (MDA-MB-231 [14]): 87.5% | Activity (MDA-MB-231 [15]): 12.4% | Activity (MDA-MB-231 [16]): 0.041% | Activity (MDA-MB-231 [17]): 0.006% | viability at 10 µM (MDA-MB-231 [27]): 64% | Activity (MDA-MB-231 [28]): 34.6% | Activity (MDA-MB-231 [29]): 1.38% | Activity (MDA-MB-231 [30]): 0.023% | IC50 (MDA-MB-436): 1180 nM | IC50 (MDA-MB-231 [12]): 29800 nM

O=C(/C=C/c1cccnc1)NCCCN1CCN(C(=O)c2cc(Cc3n[nH]c(=O)c4ccccc34)ccc2F)CC1
IC50 [1]: 0.6 nM | IC50 [2]: 68 nM

O=C(/C=C/c1cccnc1)NCCCCN1CCN(C(=O)c2cc(Cc3n[nH]c(=O)c4ccccc34)ccc2F)CC1
IC50 [1]: 0.9 nM | IC50 [2]: 10 nM | IC50 (MDA-MB-436): 1440 nM | IC50 (MDA-MB-231 [12]): 4170 nM
